Values of other authors in US11865206B2 (priority 2018, dated 2024).
Where two headings read alike, the source gives them in different places.

Tests used:
[1] = not given; remark: listed apart in the source

In the case of `O=NN(CCCl)C(=O)NCCCl` [Carmustine, 1,3-bis(2-chloroethyl)-1-nitrosourea], the “Crossing of the blood brain barrier” value (following IV infusion) is listed as “can cross the blood brain barrier”, the Oral bioavailability (oral) is listed as “poor oral bioavailability” and the Solubility ([1]; in alcohol and lipids) is listed as “highly soluble”. The Solubility ([1]; in water) was “poorly soluble”.
